Laboratory results published in US7230139B2, “Diterpenoid compounds, compositions thereof and their use as anti-cancer or anti-fungal agents” (priority 2004, dated 2007).
Read-outs that look alike come from different tables or passages of the source.

Tests used:
[1] = system: H1299 and C33A cancer cells versus HMEC and MRC-5 normal cells; settings: 72 h; 1.6 μM Compound 48, 10 μM etoposide, 100 nM staurosporine
Method: H1299 non-small cell lung carcinoma cells, C33A cervical carcinoma cells, Mrc-5 normal lung fibroblasts (American Type Culture Collection, Manassas, Va. USA) and HMEC normal mammary epithelial cells (Clonetics San Diego, Calif., USA) were cultured in RPMI 1640 media supplemented with 10% fetal calf serum (Sigma-Aldrich Inc., St. Louis, Mo. USA). The four cells lines were plated in 96-well microtiter plates (PerkinElmer Life Sciences Inc, Boston, Mass. USA) at a confluency that allowed them to reach confluence after 4 days of growth. One day after plating, the cells were treated either with 10 μM etoposide, 100 nM staurosporine or 1.6 μM of Compound 48. Stock solutions of each compound were prepared in dimethyl sulfoxide (Sigma-Aldrich Inc., St. Louis, Mo. USA), diluted in media then added to the cells. The total dimethyl sulfoxide on the cells was 1%. After 3 days of incubation, the ATP levels in the cells were quantified using the luminescent ViaLight detection system (Bio-Whittaker, Md., USA). The results were plotted relative to untreated control cells, which were set at 100.

[2] = system: C33A human cervical carcinoma; assay: Cell viability, cellular ATP levels (Vialight HS); format: cell-based; settings: C-33-A
Source text: (§1) The following cell lines were used: A549 human non-small cell lung carcinoma; C33A human cervical carcinoma; H1299 human non-small cell lung carcinoma; Hep-3B human hepatocellular carcinoma; MIA-Paca-2 human pancreatic carcinoma; PC-3 human prostatic adenocarcinoma (American Type Culture Collection, Manassas, Va., USA); HMEC normal human mammary epithelial cells; HUVEC normal human umbilical vein endothelial cells; and NHBE normal human bronchial epithelial cells (Cambrex Bio Science, Rockland, Me., USA). […] HMEC, HUVEC and NHBE cell lines were cultured in MEGM, EGM-2 and BEGM media, respectively (Cambrex Bio Science, Rockland, Me., USA). The cell lines were plated in 96-well microtitre plate at a density of 2–4×10^3 cells per well. After 16 hours, the cells were treated with various concentrations of Compound 50a or Compound 50b. Stock solutions of Compound 50a and Compound 50b, respectively, were prepared in dimethyl sulfoxide at a concentration of 5 mM. Serial dilutions were prepared in RPMI, 10% FBS and 2% DMSO and then added to the cells. The total DMSO in the cell cultures was 1%. […] The IC50s were determined using a best-fit sigmoidal dose response curve with variable slope.
(§2) The selected tumor cell lines included C33A human cervical carcinoma and H1299 human non-small cell lung carcinoma (American Type Culture Collection, Manassas, Va., USA). The cell lines were cultured in RPMI 1640 media supplemented with 10% FBS (Hyclone, Logan, Vt., USA), 100 U/mL penicillin, 100 μg/mL streptomycin and 2 mM L-glutamine (Invitrogen, Carlsbad, Calif., USA). The cell lines were plated in 96-well microtitre plate at a density of 2–4×10^3 cells per well. After 16 hours, the cells were treated with various concentrations of compound 66, 67, 68, 69 and 70, respectively. Stock solutions of compounds 66, 67, 68, 69 and 70 were prepared in dimethyl sulfoxide at a concentration of 5 mM. Serial dilutions were prepared in RPMI, 10% FBS and 2% DMSO and then added to the cells. The total DMSO on the cells was 1%. […] The IC50s were determined using a best-fit sigmoidal dose response curve with variable slope.

[3] = system: H1299 human non-small cell lung carcinoma; assay: Cell viability, cellular ATP levels (Vialight HS); format: cell-based
Source text: as §1, §2

[4] = system: SW480 human colon carcinoma cancer cells; assay: SW480 colon carcinoma xenograft in SCID mice; format: in vivo, CB17 SCID/SCID female mice
Method: The resultant mice are a model for a human having colon carcinoma cancer.
The SW480 human colon carcinoma cancer cells were maintained in RPMI supplemented with 10% inactivated fetal bovine serum and 1% penicillin-streptomycin-L-Glutamine, under 5% CO2 at 37° C., and passaged twice a week. The cells were grown at a confluency lower than 70% and then collected with Trypsin (Bio-Whittaker, Md., USA). The cells were then centrifuged and washed twice using phosphate buffered saline solution (PBS) and resuspended in PBS at 1×10^6 cells per 100 μl. Viability was examined by staining with Trypan Blue and only flasks with cell viability of greater than 95% were used for in vivo studies.
(§3) SW480 cells were transplanted subcutaneously into the flank of female CB 17 SCID/SCID mice. Each mouse was inoculated with a suspension of 1×10^6 tumor cells per 100 μL on day zero. The following five treatment groups of ten mice each were used: (a) a negative control group treated with intravenous (i.v.) injection of vehicle, (b) a group treated with i.v. injection of a Compound 50, (c) a group treated with i.v. injection of a Compound 50a, (d) a group treated with i.v. injection of Compound 50b, (e) a group treated with i.v. injection of Compound 74a.
(§4) Treatment started on day twelve after SW480 cells transplantation and Compounds 50, 50a, 50b and 74a were administered i.v. once daily for five consecutive days at a dose of 10, 10, 10 and 50 mg/kg, respectively. Compound 50, 50a and 50b were prepared as a working solution of 1.5 mg/mL in a vehicle solution of 20% Cremaphor EL (Sigma, St. Louis, Miss., USA), and 10% Ethanol. Compound 74a was prepared as a working solution of 5 mg/mL in a vehicle solution of 5% Dextrose (Abbot Laboratories, QC, Canada). The negative control groups were treated with vehicle solution of 20% Cremaphor EL and 10% Ethanol alone.
(§5) The mice were weighed and the tumors measured on day 12 and every 2 to 3 days after treatment commenced. Observations continued for 23 days after initial tumor implantation. The changes in body weight and in the calculated tumor volume were plotted (FIGS. 9 and 10). Statistical analysis was performed using GraphPad Prism (GraphPad Software Inc., San Diego, Calif.). Two-way ANOVA was used to determine how the treatment affected tumor growth over time. Following the two-way ANOVA, post-tests were performed using the Benferroni method to determine the statistical difference between the mean tumor-size of the two groups being compared on every day that the tumors were measured.

[5] = Body weight of SW480 tumor-bearing mice; format: in vivo, CB17 SCID/SCID female mice; settings: i.v. once daily for five days; 10 mg/kg (50, 50a, 50b), 50 mg/kg (74a)
Method: as §3, §4, §5

[6] = format: in vivo, CB17 SCID/SCID female mice; settings: day 34; i.p. 3.5 mg/kg once every 3 days for fifteen days
Method: C33A cells were transplanted subcutaneously into the flank of female CB17 SCID/SCID mice. Each mouse was inoculated with a suspension of 2×10^6 tumor cells per 100 μL on day zero. The following six treatment groups of ten mice each were used: (a) a negative control group treated with intravenous (i.v.) injection of vehicle, (b) a negative control group treated with intraperitoneal (i.p.) injection of vehicle, (c) a positive control group treated with i.p. injection of Cisplatin, (d) a group treated with i.v. injection of a Compound 50, (e) a group treated with i.p. injection of Compound 50, and (f) a group treated with subcutaneous (s.c.) injection of Compound 50.
Treatment started on day thirteen after C33A cells transplantation for Compound 50 treated groups and on day fourteen for Cisplatin treated group. Compound 50 was administered i.v., i.p., and s.c. once daily for five consecutive days at a dose of 10, 15 and 30 mg/kg, respectively. Compound 50 was prepared as a working solution of 1.5 mg/mL in a vehicle solution of 20% Cremaphor EL (Sigma, St. Louis, Mo., USA), 10% Ethanol and 5% Dextrose (Abbot Laboratories, QC, Canada). The negative control groups were treated with vehicle alone. The positive control group was treated once every 3 days for fifteen days at a dose of 3.5 mg/kg. Cisplatin was formulated in PBS on each day of the injection and was administered i.p.
as §5, with “13” for “12”, “36” for “23”, “4” for “9”, “5).” for “10).”, “measured. […]” for “measured.”

[7] = system: NHBE normal human bronchial epithelial cells; assay: Cell viability, cellular ATP levels (Vialight HS); format: cell-based; settings: Table 5, ATP levels 72 h post-treatment
Source text: as §1

[8] = system: PC-3 human prostatic adenocarcinoma; assay: Cell viability, cellular ATP levels (Vialight HS); format: cell-based; settings: Table 5, PC-3, prostate, tumor, ATP levels 72 h post-treatment
Source text: as §1

[9] = system: Hep-3B human hepatocellular carcinoma; assay: Cell viability, cellular ATP levels (Vialight HS); format: cell-based; settings: Hep3B, Table 5, liver, tumor, ATP levels 72 h post-treatment
Source text: as §1

[10] = system: MIA-Paca-2 human pancreatic carcinoma; assay: Cell viability, cellular ATP levels (Vialight HS); format: cell-based; settings: Table 5, MIA-Paca-2, pancreas, tumor, ATP levels 72 h post-treatment
Source text: as §1

[11] = system: HMEC normal human mammary epithelial cells; assay: Cell viability, cellular ATP levels (Vialight HS); format: cell-based; settings: Table 5, breast epithelial, ATP levels 72 h post-treatment
Source text: as §1

[12] = system: HUVEC normal human umbilical vein endothelial cells; assay: Cell viability, cellular ATP levels (Vialight HS); format: cell-based; settings: Table 5, ATP levels 72 h post-treatment
Source text: as §1

[13] = system: A549 human non-small cell lung carcinoma; assay: Cell viability, cellular ATP levels (Vialight HS); format: cell-based; settings: Table 5, A549, NSCL-adrenocarinoma, tumor, ATP levels 72 h post-treatment
Source text: as §1

[14] = Table 6, ATP levels 72 h post-treatment vs untreated cells, read-out: IC50 C33A
[15] = NCI-H1299, Table 6, ATP levels 72 h post-treatment vs untreated cells, read-out: IC50 H1299
[16] = Table 8, cellular ATP levels, read-out: IC50 C33A
[17] = NCI-H1299, Table 8, cellular ATP levels, read-out: IC50 H1299
[18] = Table 7, cellular ATP levels, read-out: IC50 C33A
[19] = NCI-H1299, Table 7, cellular ATP levels, read-out: IC50 H1299

Compound: COc1cc([C@@H]2c3cc4c(cc3[C@@H](O[C@@H]3O[C@@H]5CO[C@@H](C)O[C@H]5[C@H](O)[C@H]3O)[C@H]3COC(=O)[C@H]23)OCO4)cc(OC)c1O [etoposide]
- Selective cytotoxicity towards cancer cells [1]: selectively cytotoxic towards cancer cells

Compound: CCOP(=O)(OCC)OC1=C2C(C)(C)C(=O)C=CC2(C)c2cc(OC)ccc2C1=O (stereo not drawn) [Compound 72]
- IC50 ([2]; read-out: IC50 C33A): 0.212 µM
- IC50 ([3]; NCI-H1299, read-out: IC50 H1299): 0.997 µM

Compound: COc1ccc2c(c1)C1(C)C=CC(=O)C(C)(C)C1C(=O)C2=O (stereo not drawn) [Compound 70]
- IC50 [2, 14]: 15.9 µM
- IC50 [3, 15]: 16.8 µM

Compound: CCC1(C)C(=O)C=CC2(C)C1=C(O)C(=O)c1ccc(OC)cc12 (stereo not drawn) [Compound 66]
- IC50 [2, 14]: 1.55 µM
- IC50 [3, 15]: 1.44 µM

Compound: COc1ccc2c(c1)C1(C)C(=C(O)C2=O)C(C)(C)C(=O)CC1SCC(NC(C)=O)C(=O)O (stereo not drawn) [Compound 80]
- IC50 [2, 16]: 0.216 µM
- IC50 [3, 17]: 0.208 µM

Compound: COc1ccc2c(c1)[C@@]1(C)C=CC(=O)C(C)(C)C1=C(OP(=O)(O)O)C2=O [Compound 74a]
- Tumor growth compared to vehicle ([4]; i.v. 50 mg/kg once daily for five days): significantly reduction (p<0.001)
- Change in body weight [5]: non-significant change in body weight

Compound: COc1ccc2c(c1)C1(C)C(=C(O)C2=O)C(C)(C)C(=O)CC1SCC(NC(=O)CCC(N)C(=O)O)C(=O)NCC(=O)O (stereo not drawn) [Compound 81]
- IC50 [2, 16]: 0.186 µM
- IC50 [3, 17]: 0.155 µM

Compound: N.N.[Cl][Pt][Cl] [Cisplatin, reference compound]
- Weight loss [6]: 19%

Compound: COc1cc2c(cc1C)C(=O)C(O)=C1C(C)(C)C(=O)C=CC12C (stereo not drawn) [Compound 48, 10-Hydroxy-6-methoxy-1,1,4a,7-tetramethyl-1H,4aH-phenanthrene-2,9-dione]
- Selective cytotoxicity towards cancer cells [1]: selectively cytotoxic towards cancer cells

Compound: COc1ccc2c(c1)C1(C)C=CC(=O)C(C)(Cc3ccccc3)C1=C(O)C2=O (stereo not drawn) [Compound 68]
- IC50 [2, 14]: 2.53 µM
- IC50 [3, 15]: 2.07 µM

Compound: C=CCC1(C)C(=O)C=CC2(C)C1=C(O)C(=O)c1ccc(OC)cc12 (stereo not drawn) [Compound 67]
- IC50 [2, 14]: 1.19 µM
- IC50 [3, 15]: 0.95 µM

Compound: COC(=O)C1=CC2(C)C(=C(O)C(=O)c3ccc(OC)cc32)C(C)(C)C1=O (stereo not drawn) [Compound 69]
- IC50 [2, 14]: 0.87 µM
- IC50 [3, 15]: 1.36 µM

Compound: COc1ccc2c(c1)[C@]1(C)C=CC(=O)C(C)(C)C1=C(O)C2=O [Compound 50b]
- IC50 ([2]; Table 5, C33A, cervix, tumor, ATP levels 72 h post-treatment, read-out: IC50): 0.45 µM
- IC50 ([3]; NCI-H1299, Table 5, H1299, NSCL-LC carcinoma, tumor, ATP levels 72 h post-treatment vs untreated cells, read-out: IC50): 0.23 µM
- Tumor growth compared to vehicle ([4]; i.v. 10 mg/kg once a day for five days): significant reduction (p<0.001)
- Change in body weight [5]: non-significant change in body weight
- IC50 [7]: 1.2 µM
- IC50 [8]: 0.35 µM
- IC50 [9]: 0.77 µM
- IC50 [10]: 0.25 µM
- IC50 [11]: 2.1 µM
- IC50 [12]: 1.3 µM
- IC50 [13]: 0.58 µM

Compound: COc1ccc2c(c1)C1(C)C=CC(=O)C(C)(C)C1=C(OP(=O)(OCc1ccccc1)OCc1ccccc1)C2=O (stereo not drawn) [Compound 73]
- IC50 [2, 18]: 0.655 µM
- IC50 [3, 19]: 1.54 µM

Compound: CC1(C)C(=O)C=CC2(C)C1=C(O)C(=O)c1ccc(O)cc12 (stereo not drawn) [Compound 76]
- IC50 [2, 18]: 0.2 µM
- IC50 [3, 19]: 0.302 µM
